Test [1] concerns the target cAMP-dependent protein kinase catalytic subunit gamma (Homo sapiens) (UniProt P22612). Kind of test: Selectivity interaction (LanthaScreen Eu Kinase Binding Assay) EUB0001632a PRKACG. The note with it: at 10 µM. Background: In TR-FRET formats the signal depends on donor and acceptor labels being close together.
The target in test [2] is Protein kinase C alpha type (Homo sapiens, UniProt P17252). Briefly: Selectivity interaction (Kinase panel (Z-LYTE Assay)) EUB0001632a PRKCA. The note with it: at 10 µM.
In test [3] the target is Tyrosine-protein kinase JAK1 (Homo sapiens, UniProt P23458). The following applies: at 10 µM.
Test [4] addresses T1, Ephrin type-B receptor 3 (Homo sapiens) (UniProt P54753).
T1 sequence (whole entry): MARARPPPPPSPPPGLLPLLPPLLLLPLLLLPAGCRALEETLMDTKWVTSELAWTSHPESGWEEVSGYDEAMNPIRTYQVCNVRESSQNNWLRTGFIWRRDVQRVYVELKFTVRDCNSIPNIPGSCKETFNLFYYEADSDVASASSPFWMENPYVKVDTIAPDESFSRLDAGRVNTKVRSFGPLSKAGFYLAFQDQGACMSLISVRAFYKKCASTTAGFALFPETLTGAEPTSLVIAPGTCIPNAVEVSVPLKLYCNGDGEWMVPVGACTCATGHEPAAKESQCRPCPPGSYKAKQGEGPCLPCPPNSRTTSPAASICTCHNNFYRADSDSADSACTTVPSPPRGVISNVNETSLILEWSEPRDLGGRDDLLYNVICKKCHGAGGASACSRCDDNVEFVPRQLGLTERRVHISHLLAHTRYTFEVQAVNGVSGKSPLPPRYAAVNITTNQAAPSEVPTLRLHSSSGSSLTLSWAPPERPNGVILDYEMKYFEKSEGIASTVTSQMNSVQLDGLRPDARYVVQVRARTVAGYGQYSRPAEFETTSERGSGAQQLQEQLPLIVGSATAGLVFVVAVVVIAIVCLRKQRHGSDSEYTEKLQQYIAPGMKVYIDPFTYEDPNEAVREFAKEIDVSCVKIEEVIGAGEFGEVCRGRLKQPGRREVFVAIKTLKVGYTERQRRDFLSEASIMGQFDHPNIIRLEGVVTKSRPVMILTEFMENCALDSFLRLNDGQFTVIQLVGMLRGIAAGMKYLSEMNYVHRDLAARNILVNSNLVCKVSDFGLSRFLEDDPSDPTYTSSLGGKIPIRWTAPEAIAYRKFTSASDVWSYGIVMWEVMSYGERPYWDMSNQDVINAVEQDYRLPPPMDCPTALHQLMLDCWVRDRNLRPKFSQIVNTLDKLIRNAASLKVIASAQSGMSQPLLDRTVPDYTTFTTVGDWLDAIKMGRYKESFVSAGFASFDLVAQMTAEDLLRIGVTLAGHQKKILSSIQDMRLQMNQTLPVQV
Kind of test: Selectivity interaction (KinomeScan (DiscoverX)) EUB0000655a EPHB3. The note with it: at 10 µM.

The target of another test is Histamine H3 receptor (Homo sapiens, UniProt Q9Y5N1). Briefly: Selectivity interaction (Human histamine H3 receptor binding assay ) EUB0000877a HRH3.
Test [5] has as its target TGF-beta receptor type-2 (Homo sapiens) (UniProt P37173). Kind of test: Selectivity interaction (KinomeScan (DiscoverX)) EUB0000695a TGFBR2. The following applies: at 100 nM.
The target of test [6] is T2, Serine/threonine-protein kinase DCLK2 (Homo sapiens) (UniProt Q8N568).
T2 sequence (whole entry): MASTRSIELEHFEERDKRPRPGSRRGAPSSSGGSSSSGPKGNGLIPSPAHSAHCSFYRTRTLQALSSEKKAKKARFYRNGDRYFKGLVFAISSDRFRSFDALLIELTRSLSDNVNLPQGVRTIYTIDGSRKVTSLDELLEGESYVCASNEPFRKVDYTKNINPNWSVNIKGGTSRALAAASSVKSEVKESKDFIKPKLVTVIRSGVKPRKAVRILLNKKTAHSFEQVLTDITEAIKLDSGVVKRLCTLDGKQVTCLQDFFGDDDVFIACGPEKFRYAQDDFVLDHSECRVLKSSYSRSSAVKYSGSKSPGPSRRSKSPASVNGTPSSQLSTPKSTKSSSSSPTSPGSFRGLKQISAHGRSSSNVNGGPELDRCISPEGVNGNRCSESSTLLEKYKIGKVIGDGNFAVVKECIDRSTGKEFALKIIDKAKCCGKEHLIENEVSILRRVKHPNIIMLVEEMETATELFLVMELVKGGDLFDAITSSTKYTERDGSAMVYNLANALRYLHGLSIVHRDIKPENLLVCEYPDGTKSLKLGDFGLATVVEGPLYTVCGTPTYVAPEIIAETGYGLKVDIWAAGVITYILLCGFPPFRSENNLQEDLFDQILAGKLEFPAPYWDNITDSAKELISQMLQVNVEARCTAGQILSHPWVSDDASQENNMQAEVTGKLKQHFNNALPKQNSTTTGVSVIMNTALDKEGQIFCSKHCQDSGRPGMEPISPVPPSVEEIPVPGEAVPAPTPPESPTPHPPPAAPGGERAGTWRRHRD
Briefly: Selectivity interaction (KinomeScan (DiscoverX)) EUB0000045b DCLK2.

For test [7], the target named is Glycogen synthase kinase-3 alpha (Homo sapiens, UniProt P49840). Kind of test: Selectivity interaction (KinomeScan (DiscoverX)) EUB0000045b GSK3A.

For orientation: IC50 means the concentration at which inhibition is half-maximal. The low end stands for greater potency in that assay, the high end for weaker potency in that assay.

Chain of Glycogen synthase kinase-3 alpha (P49840 2-483 limits assumed): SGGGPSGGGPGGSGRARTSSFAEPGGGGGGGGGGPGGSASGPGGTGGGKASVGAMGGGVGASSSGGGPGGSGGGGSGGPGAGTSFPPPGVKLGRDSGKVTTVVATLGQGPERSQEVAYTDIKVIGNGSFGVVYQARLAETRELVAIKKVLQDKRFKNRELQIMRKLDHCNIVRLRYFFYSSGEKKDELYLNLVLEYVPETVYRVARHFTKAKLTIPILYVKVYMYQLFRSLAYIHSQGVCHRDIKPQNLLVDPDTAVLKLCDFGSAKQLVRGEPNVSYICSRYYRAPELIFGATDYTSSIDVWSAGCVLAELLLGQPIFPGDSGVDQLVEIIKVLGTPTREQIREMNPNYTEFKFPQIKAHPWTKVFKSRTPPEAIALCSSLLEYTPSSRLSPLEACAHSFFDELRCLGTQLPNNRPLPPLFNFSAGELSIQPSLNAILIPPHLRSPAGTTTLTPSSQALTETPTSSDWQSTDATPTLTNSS
Chain of Tyrosine-protein kinase JAK1 (P23458 whole entry): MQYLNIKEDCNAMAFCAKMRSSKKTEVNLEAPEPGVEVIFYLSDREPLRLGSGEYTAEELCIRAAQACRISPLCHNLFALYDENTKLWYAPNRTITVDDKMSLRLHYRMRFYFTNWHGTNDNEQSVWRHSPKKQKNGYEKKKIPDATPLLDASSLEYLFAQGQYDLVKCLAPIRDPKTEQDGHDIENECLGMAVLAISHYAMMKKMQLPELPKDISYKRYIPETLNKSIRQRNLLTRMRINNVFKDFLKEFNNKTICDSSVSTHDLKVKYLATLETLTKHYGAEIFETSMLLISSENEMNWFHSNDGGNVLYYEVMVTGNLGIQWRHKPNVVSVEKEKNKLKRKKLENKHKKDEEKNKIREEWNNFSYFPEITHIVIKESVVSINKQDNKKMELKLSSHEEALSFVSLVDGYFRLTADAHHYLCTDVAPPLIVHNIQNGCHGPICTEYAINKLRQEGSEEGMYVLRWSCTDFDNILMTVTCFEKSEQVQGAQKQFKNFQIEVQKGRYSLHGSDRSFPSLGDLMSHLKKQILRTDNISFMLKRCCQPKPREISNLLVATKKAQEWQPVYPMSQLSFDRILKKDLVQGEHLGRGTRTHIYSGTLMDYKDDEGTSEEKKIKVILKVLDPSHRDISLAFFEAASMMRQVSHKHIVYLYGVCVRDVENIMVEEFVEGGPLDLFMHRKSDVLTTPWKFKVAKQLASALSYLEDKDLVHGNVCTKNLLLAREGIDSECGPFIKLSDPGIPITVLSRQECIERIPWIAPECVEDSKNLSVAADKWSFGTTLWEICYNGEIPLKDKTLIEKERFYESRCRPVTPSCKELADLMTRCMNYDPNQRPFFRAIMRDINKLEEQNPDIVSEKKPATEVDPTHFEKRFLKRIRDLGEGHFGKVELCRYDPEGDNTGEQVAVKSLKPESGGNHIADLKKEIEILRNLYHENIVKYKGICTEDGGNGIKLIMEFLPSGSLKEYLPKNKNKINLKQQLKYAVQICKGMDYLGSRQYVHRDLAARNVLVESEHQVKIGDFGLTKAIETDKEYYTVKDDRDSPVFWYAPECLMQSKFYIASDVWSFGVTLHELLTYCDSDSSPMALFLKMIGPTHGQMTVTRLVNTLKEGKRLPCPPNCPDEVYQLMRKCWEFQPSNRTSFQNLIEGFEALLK
Chain of TGF-beta receptor type-2 (Homo sapiens) (P37173 whole entry): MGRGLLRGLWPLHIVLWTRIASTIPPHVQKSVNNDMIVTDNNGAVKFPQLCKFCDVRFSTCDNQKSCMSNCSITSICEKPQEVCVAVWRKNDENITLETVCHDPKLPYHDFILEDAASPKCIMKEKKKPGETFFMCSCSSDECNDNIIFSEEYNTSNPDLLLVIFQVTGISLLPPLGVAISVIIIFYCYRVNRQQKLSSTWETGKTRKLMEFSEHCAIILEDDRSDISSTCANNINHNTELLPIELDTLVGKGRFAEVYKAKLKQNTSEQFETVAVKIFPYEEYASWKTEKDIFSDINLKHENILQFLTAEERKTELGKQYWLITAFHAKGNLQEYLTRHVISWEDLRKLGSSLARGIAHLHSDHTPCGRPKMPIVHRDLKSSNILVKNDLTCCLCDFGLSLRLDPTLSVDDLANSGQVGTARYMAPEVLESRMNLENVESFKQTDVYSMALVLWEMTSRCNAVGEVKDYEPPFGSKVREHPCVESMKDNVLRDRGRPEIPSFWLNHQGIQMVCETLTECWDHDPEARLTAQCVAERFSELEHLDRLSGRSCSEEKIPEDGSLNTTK
Chain of Histamine H3 receptor (Q9Y5N1 whole entry): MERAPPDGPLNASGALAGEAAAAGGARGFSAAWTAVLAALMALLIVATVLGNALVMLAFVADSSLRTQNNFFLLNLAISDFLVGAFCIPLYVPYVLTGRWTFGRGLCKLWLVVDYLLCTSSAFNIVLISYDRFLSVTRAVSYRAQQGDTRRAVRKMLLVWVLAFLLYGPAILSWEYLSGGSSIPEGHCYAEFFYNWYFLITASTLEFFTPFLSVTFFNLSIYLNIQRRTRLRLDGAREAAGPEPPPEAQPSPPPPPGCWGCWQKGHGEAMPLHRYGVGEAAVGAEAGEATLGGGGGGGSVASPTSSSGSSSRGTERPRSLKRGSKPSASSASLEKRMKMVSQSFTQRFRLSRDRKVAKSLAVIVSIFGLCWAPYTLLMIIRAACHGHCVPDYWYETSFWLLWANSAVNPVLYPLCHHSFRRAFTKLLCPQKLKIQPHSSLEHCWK
Chain of cAMP-dependent protein kinase catalytic subunit gamma (Homo sapiens) (P22612 2-351 limits assumed): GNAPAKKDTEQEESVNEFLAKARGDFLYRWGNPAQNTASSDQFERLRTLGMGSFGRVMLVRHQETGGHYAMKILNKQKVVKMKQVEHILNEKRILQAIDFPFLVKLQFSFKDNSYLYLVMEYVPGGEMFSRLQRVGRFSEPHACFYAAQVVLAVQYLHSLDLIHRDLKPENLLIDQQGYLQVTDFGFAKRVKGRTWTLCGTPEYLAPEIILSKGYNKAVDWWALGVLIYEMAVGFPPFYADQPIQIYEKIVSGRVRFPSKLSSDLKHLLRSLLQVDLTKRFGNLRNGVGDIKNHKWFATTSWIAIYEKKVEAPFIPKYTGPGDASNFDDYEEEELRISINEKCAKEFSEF

On to `Cn1cc(-n2cnc3c(NCc4nc5cc(Cl)c(Cl)cc5[nH]4)nc(N4CCOCC4)nc32)cn1`, for which the % of inhibition in test [1] was -38.1%. The molecule further had a % of control in test [2] of 1.16%. The molecule `Cc1cc([C@@H](C)Nc2ccccc2C(=O)O)c2nc(N3CCOCC3)cc(=O)n2c1` [AZD-6482] gave a % of control in test [3] of 100%.

In turn, `CN(C)CCOc1ccc(-c2nc(-c3ccncc3)c(-c3ccc4c(c3)CC/C4=N\O)[nH]2)cc1` displayed a % of control in test [4] of 100%. For `CCC(=O)N1CC[C@H](Nc2ncnc3c2CN(c2cnc(OC)c(C(F)(F)F)c2)CC3)C1` [LENIOLISIB], the IC50 at Histamine H3 receptor was greater than 30 µM. `Cc1cc(F)c(C(=O)Nc2cccc(-c3nncn3C(C)C)n2)cc1-n1cnc(C2CC2)c1` registered a % of control in test [5] of 99%. On to `C=CC(=O)Nc1cc(-n2c(=O)ccc3cnc4ccc(-c5ccc(NS(C)(=O)=O)cc5)cc4c32)ccc1C`, for which the % of control in test [6] (at 1 µM), in test [6] (at 10 µM), in test [7] (at 1 µM) and in test [7] (at 10 µM) was 100% throughout.
